Earlier results, collected in patent US20070190209A1, “All natural multivitamin and multimineral dietary supplement formulations for enhanced absorption and biological utilization” (Mannatech, Inc., priority 2006, published 2007).
Read-outs that look alike come from different tables or passages of the source.

Assays:
[1] = test system: human cytosolic glutathione S-transferases (GSTs); settings: van Haften, et al. (2002, 2003)
bone components = settings: in vitro, combined with zinc; Uchiyama, et al. (2005)
[2] = test system: intestinal glucuronidation
[3] = test system: phase II detoxifying enzymes; settings: glutathione transferases, NAD(P)H:quinone reductases, epoxide hydrolases; literature
osteoclasts = settings: Rao, et al. (2003)
thyroid gland of rats = settings: Radovic, et al. (2005)
[4] = test system: mammalian glutathione transferases; settings: Kulkarni and Kulkarni (1995)
[5] = by decreasing or eliminating intestinal glucuronidation, Mizuma and Awazu (2004)

Cc1c(C)c2c(c(C)c1O)CC[C@@](C)(CCC[C@H](C)CCC[C@H](C)CCCC(C)C)O2 [alpha-tocopherol]
activity of human cytosolic GSTs [1]: inhibited

CC1=C(/C=C/C(C)=C/C=C/C(C)=C/C=C/C=C(C)/C=C/C=C(C)/C=C/C2=C(C)C[C@@H](O)CC2(C)C)C(C)(C)CCC1 [beta-cryptoxanthin]
anabolic effects on bone components (bone components): synergistic anabolic effects

O=c1cc(-c2ccccc2)oc2cc(O)cc(O)c12 [chrysin]
absorption of model drug alpha-napthol [2, 5]: increase the absorption

Oc1cc(O)c2c(c1)O[C@H](c1ccc(O)c(O)c1)[C@H](O)C2 [epicatechin]
absorption of model drug alpha-napthol [2, 5]: increase the absorption

O=C(O[C@@H]1Cc2c(O)cc(O)cc2O[C@@H]1c1cc(O)c(O)c(O)c1)c1cc(O)c(O)c(O)c1 [epigallocatechin galleate (ECGC), epigallocatechin galleate]
absorption of model drug alpha-napthol [2]: increase the absorption

CSCCCCC(=NOS(=O)(=O)O)S[C@@H]1O[C@H](CO)[C@@H](O)[C@H](O)[C@H]1O [glucoerucin]
induction of phase II detoxifying enzymes [3]: potent inducers

C[S+]([O-])CCCC/C(=N\OS(=O)(=O)O)S[C@@H]1O[C@H](CO)[C@@H](O)[C@H](O)[C@H]1O (stereo partly shown) [glucoraphanin]
induction of phase II detoxifying enzymes [3]: potent inducers

CC(C)=CCC/C(C)=C/C=C/C(C)=C/C=C/C(C)=C/C=C/C=C(C)/C=C/C=C(C)/C=C/C=C(\C)CCC=C(C)C [lycopene]
formation of osteoclasts and osteoclastic mineral resorption (osteoclasts): prevented the formation of osteoclasts and osteoclastic mineral resorption

O=c1c(O)c(-c2ccc(O)c(O)c2)oc2cc(O)cc(O)c12 [quercetin]
absorption of model drug alpha-napthol [2, 5]: increase the absorption

COc1cc(O)c(CC=C(C)C)c(O)c1C(=O)/C=C/c1ccc(O)cc1 [xanthohumol]
uptake of iodine into the thyroid gland (thyroid gland of rats): stimulates the uptake of iodine

tocopherols
activity of human cytosolic GSTs [1]: inhibited

tocotrieneols
activity of human cytosolic GSTs [1]: inhibited

vitamin A
inhibition of mammalian glutathione transferases [4]: inhibit mammalian glutathione transferases at low concentrations
